Test results published in PMC9234961 (Journal of Medicinal Chemistry, 2022).

Key:
HT DLBCL xenograft = experiment: Efficacy study in HT DLBCL xenograft model; type: in vivo, mouse
Description: single treatment of vehicle.
7.3.3 Preparation of HT Cells […]
subcultured 1:4 every 3-4 days. […]
pharmacokinetic analysis (PK).
7.3.6 Tumour lysis and Wes method
Lysates were incubated on
Samples were stored at -80 °C until use.
Data was analysed using Compass for SW software. BCL6

ADORA2A = ADORA2A (Homo sapiens, UniProt P29274); experiment: SAFETYScan GPCR Calcium Flux, Agonist; type: cell-based
ADORA2A, sequence (P29274 whole entry): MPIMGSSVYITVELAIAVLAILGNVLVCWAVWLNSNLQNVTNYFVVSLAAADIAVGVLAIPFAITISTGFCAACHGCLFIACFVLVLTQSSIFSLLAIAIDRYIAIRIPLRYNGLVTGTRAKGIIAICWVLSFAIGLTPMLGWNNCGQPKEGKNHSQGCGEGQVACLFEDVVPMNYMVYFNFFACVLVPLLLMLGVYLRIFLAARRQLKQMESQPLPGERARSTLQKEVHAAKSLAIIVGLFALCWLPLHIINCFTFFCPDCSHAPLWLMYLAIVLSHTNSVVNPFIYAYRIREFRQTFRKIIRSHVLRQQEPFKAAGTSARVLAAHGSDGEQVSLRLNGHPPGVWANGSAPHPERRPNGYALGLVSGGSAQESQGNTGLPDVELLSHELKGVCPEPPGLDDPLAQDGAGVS
Description: (§1) Supplement jm1c02175_si_002.xlsx, sheet "SAFETYScan" | column: RC50 (uM); Max Response

CHRM3 = CHRM3 (Homo sapiens, UniProt P20309); experiment: SAFETYScan GPCR Calcium Flux, Agonist; type: cell-based
CHRM3, sequence (P20309 whole entry): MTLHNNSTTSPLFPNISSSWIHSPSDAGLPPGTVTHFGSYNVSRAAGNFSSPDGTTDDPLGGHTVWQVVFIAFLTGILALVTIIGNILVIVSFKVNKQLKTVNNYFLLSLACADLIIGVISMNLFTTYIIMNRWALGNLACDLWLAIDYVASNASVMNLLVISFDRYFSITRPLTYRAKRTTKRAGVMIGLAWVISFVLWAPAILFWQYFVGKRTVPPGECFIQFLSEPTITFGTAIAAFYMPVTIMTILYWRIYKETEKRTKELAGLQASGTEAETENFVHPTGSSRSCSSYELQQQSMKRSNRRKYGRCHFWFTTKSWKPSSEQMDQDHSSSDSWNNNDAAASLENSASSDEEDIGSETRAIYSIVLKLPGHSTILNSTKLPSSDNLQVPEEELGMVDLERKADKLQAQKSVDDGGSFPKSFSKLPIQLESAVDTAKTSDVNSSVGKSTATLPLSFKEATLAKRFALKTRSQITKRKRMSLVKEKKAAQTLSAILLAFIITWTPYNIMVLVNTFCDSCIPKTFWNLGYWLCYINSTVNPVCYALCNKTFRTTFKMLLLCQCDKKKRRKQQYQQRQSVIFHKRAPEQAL
Description: as §1

HRH1 = HRH1 (Homo sapiens, UniProt P35367); experiment: SAFETYScan GPCR Calcium Flux, Agonist; type: cell-based
HRH1, sequence (P35367 whole entry): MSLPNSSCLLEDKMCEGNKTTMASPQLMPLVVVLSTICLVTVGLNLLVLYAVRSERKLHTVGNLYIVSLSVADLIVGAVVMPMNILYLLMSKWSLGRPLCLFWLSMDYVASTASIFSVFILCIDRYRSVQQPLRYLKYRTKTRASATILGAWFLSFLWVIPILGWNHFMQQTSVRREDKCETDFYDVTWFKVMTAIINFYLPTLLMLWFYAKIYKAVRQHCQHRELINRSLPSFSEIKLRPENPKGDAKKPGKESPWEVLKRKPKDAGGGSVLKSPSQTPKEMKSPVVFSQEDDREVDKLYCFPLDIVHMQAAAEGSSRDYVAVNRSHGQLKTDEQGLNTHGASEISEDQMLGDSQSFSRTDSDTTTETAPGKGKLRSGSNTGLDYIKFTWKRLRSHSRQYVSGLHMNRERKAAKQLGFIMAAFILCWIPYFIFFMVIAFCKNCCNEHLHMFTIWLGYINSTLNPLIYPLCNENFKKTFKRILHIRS
Description: as §1

AVPR1A = AVPR1A (Homo sapiens, UniProt P37288); experiment: SAFETYScan GPCR Calcium Flux, Agonist; type: cell-based
AVPR1A, sequence (P37288 whole entry): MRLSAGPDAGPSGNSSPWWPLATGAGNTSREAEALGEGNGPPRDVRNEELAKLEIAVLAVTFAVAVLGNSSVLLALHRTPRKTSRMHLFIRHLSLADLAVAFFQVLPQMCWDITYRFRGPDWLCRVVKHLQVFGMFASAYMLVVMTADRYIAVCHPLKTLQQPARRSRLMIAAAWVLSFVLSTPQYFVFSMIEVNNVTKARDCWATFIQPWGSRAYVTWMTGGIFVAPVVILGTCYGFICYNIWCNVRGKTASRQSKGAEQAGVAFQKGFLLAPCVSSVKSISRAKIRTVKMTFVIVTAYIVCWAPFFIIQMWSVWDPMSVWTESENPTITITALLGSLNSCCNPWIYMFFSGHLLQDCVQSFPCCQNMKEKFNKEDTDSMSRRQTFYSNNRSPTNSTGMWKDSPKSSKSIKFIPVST
Description: as §1

EDNRA = target: T1, EDNRA (Homo sapiens, UniProt P25101); experiment: SAFETYScan GPCR Calcium Flux, Agonist; type: cell-based
T1 sequence (P25101 21-427): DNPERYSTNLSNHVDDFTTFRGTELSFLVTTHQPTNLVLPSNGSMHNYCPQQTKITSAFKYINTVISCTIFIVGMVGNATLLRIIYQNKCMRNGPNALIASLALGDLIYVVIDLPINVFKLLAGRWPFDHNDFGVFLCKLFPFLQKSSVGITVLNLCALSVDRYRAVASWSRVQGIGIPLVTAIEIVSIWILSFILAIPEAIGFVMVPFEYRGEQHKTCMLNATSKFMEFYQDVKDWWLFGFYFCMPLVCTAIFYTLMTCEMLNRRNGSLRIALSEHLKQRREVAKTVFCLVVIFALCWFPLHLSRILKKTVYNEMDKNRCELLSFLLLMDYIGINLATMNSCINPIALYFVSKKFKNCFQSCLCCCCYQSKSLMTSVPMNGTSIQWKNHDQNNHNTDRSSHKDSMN
Description: as §1

HTR2A = HTR2A (Homo sapiens, UniProt P28223); experiment: SAFETYScan GPCR Calcium Flux, Agonist; type: cell-based
HTR2A, sequence (P28223 whole entry): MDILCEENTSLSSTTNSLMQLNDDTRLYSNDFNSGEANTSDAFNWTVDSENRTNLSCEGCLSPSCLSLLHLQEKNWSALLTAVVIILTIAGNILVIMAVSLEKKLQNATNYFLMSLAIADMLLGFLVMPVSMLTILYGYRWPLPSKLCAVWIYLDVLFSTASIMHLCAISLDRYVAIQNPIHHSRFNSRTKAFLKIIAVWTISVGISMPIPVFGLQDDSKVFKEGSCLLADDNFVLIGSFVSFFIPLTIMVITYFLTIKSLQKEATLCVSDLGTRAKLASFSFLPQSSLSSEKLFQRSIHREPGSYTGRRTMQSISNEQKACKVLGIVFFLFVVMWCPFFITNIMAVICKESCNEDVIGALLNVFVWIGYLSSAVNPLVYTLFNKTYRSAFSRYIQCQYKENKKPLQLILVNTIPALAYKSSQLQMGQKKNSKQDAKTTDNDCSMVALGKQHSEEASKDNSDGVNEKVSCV
Description: as §1

[1] = Microsomal clearance assay (HLM); type: in vitro ADME; details: human liver microsomes, 1 μM compound
Description: 6. Supplementary experimental: in vitro DMPK assays
6.1 Microsomal clearance assay
Microsomal clearance was determined in female CD1 mice, female Sprague–Dawley rats, and mixed gender human liver microsomes obtained from BioIVT (Peterborough, U.K.) following incubation of 1 μM compound at 37 °C in 0.5 mg/mL microsomal protein, 3 mmol/L MgCl2, 1 mmol/L NADPH, 2.5 mmol/L and 10 mmol/L phosphate buffer (pH 7.4) (all purchased from Sigma-Aldrich, Gillingham, U.K). Reactions were started by addition of the cofactors following 10 min preincubation of microsomes with test compound and were terminated at −1, 0, 5, 10, 15, and 30 min with three volumes of ice-cold methanol containing internal standard. Samples were centrifuged at 2800g for 30 min at 4 °C and the supernatants analyzed.
Control incubations were prepared as above with omission of cofactors. Compound measurements were […]
separation with a 3 min gradient of 0.1% formic acid in methanol on a Kinetex C18, 50 × 2.1 mm 2.6 μm UPLC column (Phenomenex, Macclesfield, UK). […]

AR = target: T2, AR (Homo sapiens, UniProt P10275); experiment: SAFETYScan NHR Nuclear Translocation, Agonist; type: cell-based
T2 sequence (P10275 1-920): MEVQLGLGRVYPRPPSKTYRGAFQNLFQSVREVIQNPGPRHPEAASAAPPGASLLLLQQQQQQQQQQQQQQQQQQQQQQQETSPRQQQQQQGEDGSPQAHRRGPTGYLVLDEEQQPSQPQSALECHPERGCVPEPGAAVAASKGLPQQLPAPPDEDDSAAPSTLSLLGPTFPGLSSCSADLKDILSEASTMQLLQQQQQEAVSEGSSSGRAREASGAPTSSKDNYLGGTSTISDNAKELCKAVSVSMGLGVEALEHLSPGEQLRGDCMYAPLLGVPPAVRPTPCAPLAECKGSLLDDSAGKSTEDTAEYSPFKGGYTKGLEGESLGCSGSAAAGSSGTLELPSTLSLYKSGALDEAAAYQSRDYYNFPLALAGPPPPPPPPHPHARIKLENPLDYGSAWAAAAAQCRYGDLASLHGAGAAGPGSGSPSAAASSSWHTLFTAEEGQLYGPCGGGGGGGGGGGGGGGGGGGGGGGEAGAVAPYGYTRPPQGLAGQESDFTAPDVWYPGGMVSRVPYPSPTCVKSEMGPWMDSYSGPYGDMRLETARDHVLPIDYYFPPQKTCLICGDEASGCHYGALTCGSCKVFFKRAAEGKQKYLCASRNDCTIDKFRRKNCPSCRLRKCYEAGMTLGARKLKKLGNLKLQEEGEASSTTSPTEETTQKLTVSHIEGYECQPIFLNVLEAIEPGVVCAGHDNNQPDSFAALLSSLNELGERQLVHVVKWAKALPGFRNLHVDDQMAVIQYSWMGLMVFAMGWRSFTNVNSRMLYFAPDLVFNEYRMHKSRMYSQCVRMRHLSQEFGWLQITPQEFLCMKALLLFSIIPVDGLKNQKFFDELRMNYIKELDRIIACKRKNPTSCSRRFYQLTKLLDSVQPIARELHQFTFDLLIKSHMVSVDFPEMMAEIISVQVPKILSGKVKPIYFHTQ
Description: as §1

GABAA = GABAA (Homo sapiens, UniProt P14867+P18507+P47870); experiment: SAFETYScan Ion Channel, Opener; type: cell-based; details: read-out: Max Response
GABAA, sequence (P18507 40-475): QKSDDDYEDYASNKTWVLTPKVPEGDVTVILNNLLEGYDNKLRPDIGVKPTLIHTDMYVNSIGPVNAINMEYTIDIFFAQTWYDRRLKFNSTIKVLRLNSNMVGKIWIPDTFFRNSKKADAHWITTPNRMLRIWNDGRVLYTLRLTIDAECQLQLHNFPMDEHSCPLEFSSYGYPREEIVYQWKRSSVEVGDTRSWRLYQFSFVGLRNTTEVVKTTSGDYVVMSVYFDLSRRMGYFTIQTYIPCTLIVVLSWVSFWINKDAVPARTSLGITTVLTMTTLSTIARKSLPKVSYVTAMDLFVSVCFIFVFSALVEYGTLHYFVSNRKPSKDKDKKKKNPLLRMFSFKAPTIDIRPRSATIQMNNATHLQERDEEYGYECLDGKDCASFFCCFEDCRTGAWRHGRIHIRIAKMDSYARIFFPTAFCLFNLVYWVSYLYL
GABAA, sequence (P14867 28-456): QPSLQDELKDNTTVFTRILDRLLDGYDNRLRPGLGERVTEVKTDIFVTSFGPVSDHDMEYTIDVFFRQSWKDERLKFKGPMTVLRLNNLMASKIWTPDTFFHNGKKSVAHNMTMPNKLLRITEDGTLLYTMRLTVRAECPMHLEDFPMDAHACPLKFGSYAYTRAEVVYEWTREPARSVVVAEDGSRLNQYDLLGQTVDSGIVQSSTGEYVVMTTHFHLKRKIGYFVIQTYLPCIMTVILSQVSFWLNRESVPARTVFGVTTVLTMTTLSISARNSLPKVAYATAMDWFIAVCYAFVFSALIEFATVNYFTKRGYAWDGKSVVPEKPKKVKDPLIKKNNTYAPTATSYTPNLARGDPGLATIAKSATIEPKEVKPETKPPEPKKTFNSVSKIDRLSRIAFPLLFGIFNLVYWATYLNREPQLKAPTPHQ
GABAA, sequence (P47870 26-512): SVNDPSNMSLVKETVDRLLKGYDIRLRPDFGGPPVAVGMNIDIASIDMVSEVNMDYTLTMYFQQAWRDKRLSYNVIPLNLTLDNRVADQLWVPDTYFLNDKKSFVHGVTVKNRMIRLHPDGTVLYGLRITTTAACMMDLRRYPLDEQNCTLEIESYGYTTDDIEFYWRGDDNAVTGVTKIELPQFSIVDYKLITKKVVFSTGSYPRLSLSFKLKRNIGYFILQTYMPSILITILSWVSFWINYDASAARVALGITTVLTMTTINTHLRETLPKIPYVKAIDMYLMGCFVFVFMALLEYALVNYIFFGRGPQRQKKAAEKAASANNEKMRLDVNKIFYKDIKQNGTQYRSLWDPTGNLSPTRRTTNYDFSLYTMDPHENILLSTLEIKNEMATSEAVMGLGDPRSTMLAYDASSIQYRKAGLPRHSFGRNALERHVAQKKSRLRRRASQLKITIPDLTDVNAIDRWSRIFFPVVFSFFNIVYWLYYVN
Description: as §1

[2] = logD7.4 assay (Chrom log D method); type: physicochemical; details: reversed-phase HPLC on Phenomenex Luna C8 column, pH 7.4, read-out: Measured logD7.4
Outline: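 Samples at 1mM in 10% DMSO/90% Trizma buffer (100mM Trizma in 75/25 methanol/water) injected onto a C8 column at 30°C under gradient elution at 2 mL/min. Retention calibrated against calibration and validation standards.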

Compound: C[C@H]1C[C@@H](O)CN(c2ncc(Cl)c(Nc3ccc4c(c3)c3c(c(=O)n4C)OCC(F)(F)[C@H](C4CC4)N3)n2)C1 [12a CCT373566, (S)-10-((5-Chloro-2-((3R,5S)-3-hydroxy-5-methylpiperidin-1-yl)pyrimidin-4-yl)amino)-2-cyclopropyl-3,3-difluoro-7-methyl-1,2,3,4-tetrahydro-[1,4]oxazepino[2,3-c]quinolin-6(7H)-one]
- T/C (HT DLBCL xenograft; 50 mg/kg BID, 22 days): 60%
- BCL6 levels after the last dose (HT DLBCL xenograft; 50 mg/kg po bid for 22 days, 4 h and 12 h after last dose): remained decreased 4 h and 12 h after the last dose
- body weight (HT DLBCL xenograft; 50 mg/kg po bid, 22 days): No body weight losses were observed
- tumor growth compared to the vehicle control group (HT DLBCL xenograft; 50 mg/kg po bid, 22 days): modest decrease in tumor growth
- Emax (ADORA2A; read-out: Max Response): 0%
- EC50 (ADORA2A; read-out: RC50 (EC50)): > 10 µM
- Emax (CHRM3; read-out: Max Response): 3.17%
- EC50 (CHRM3; read-out: RC50 (EC50)): > 10 µM
- Emax (HRH1; read-out: Max Response): 1.78%
- EC50 (HRH1; read-out: RC50 (EC50)): > 10 µM
- Emax (AVPR1A; read-out: Max Response): 4.09%
- EC50 (AVPR1A; read-out: RC50 (EC50)): > 10 µM
- Emax (EDNRA; read-out: Max Response): 0.25%
- EC50 (EDNRA; read-out: RC50 (EC50)): > 10 µM
- Emax (HTR2A; read-out: Max Response): 0%
- EC50 (HTR2A; read-out: RC50 (EC50)): > 10 µM
- microsomal CLint at 0.5 h, 1 µM ([1]; both sexes, pH 7.4): 8 µL/min/mg
- CLint (HLM) [1]: low clearance
- Emax (AR; read-out: Max Response): 0%
- EC50 (AR; read-out: RC50 (EC50)): > 10 µM
- Emax (GABAA): 4.81%
- chromatographic logD [2]: 3
